This is an account of results in patent US20040242665A1, “Hair composition containing a styrylpyrazole compound, and use thereof for stimulating or inducing hair or eyelash growth and/or reducing loss thereof” (SOCIETE L'OREAL S.A., priority 2002, published 2004).

Molecules are shown by their SMILES.

One assay concerns the target T1, 15-PGDH (Homo sapiens, UniProt P15428).
T1 construct: made in house
T1 sequence (P15428 1-266): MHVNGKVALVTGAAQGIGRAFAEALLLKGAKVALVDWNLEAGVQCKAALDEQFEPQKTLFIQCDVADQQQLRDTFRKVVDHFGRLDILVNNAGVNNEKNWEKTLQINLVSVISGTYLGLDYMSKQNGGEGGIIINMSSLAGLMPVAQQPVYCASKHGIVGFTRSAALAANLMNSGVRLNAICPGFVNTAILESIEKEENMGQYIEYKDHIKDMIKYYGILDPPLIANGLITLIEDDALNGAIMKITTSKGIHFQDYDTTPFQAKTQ
Nature of the assay: Test on 15-PGDH (spectrophotometric, 340 nm, PGE2 and NAD). The format is biochemical. Particulars: for IC50: pH 7.4 Tris buffer, 37° C., 50 μM prostaglandin E2, read-out: Inhibition of 15-PGDH IC50dh. Here is the method: The enzyme 15-PGDH is obtained as described in patent application FR 02/05067 filed in the name of L'Oreal, as a suspension in a medium adjusted to a concentration of 0.3 mg/ml and then blocked at −80° C. For the purposes of the test, this suspension is thawed and stored in ice.
In parallel, a 100 mM, pH 7.4 Tris buffer containing 0.1 mM of dithiothreitol (D5545, Sigma-Aldrich, L'isle D'Abeau Chesne, BP 701, 38297, Saint Quentin Fallavier), 1.5 mM of P-NAD (N6522, Sigma-Aldrich, L'isle D'Abeau Chesne, BP 701, 38297, Saint Quentin Fallavier), and 50 μM of prostaglandin E2 (P4172, Sigma-Aldrich, L'isle D'Abeau Chesne, BP 701, 38297, Saint Quentin Fallavier) is prepared.
0.965 ml of this buffer (brought to 37° C. beforehand) is introduced into the cuvette of a spectrophotometer (Perkin-Elmer, Lambda 2) thermostatically maintained at 37° C., the measuring wavelength of which is set at 340 nm. 0.035 ml of enzymatic suspension at 37° C. is introduced into the cuvette concomitantly with the recording (corresponding to an increase in the optical density at 340 nm). The maximum reaction rate is recorded.

In a further assay the target is T2, PGF synthase (Homo sapiens, UniProt P42330).
T2 construct: made in house
T2 sequence (P42330 1-323): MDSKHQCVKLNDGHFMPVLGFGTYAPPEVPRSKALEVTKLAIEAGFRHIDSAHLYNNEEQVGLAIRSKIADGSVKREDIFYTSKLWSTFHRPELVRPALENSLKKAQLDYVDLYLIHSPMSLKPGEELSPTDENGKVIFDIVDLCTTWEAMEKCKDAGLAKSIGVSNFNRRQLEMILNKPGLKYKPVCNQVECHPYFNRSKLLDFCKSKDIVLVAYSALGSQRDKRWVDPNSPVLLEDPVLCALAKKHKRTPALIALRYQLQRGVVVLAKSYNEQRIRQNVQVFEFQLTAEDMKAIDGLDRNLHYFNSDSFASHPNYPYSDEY
Briefly: Test on PGF synthase (spectrophotometric, 340 nm, 9,10-phenanthrenequinone and NADPH). Type of assay: biochemical. The settings on record: pH 6.5 Tris buffer, 37° C., 20 μM 9,10-phenanthrenequinone, 100 μM β-NADPH; read-out: Inhibition of PGF synthase IC50fs. Here is the method:
The enzyme PGFS is obtained as described in document FR-A-02/05067, at a concentration of 0.5 mg/ml, as a suspension in a suitable medium, and blocked at −80° C. For the purposes of the test, this suspension is thawed and stored in ice.
In parallel, a 100 mM, pH 6.5 Tris buffer containing 20 μm of 9,10-phenanthrenequinone* (P2896, Sigma-Aldrich, L'isle D'Abeau Chesne, BP 701, 38297, Saint Quentin Fallavier) and 100 μM of β-NADPH (N1630, Sigma-Aldrich, L'isle D'Abeau Chesne, BP 701, 38297, Saint Quentin Fallavier) is prepared in a brown flask (protected from light).
*A stock solution with a titre of 1 mM is prepared in absolute ethanol and brought to 40° C.; the flask is placed in an ultrasound tank to facilitate the dissolution of the product.
0.950 ml of this buffer (brought to 37° C. beforehand) is introduced into the cuvette of a spectrophotometer (Perkin-Elmer, Lambda 2) thermostatically maintained at 37° C., the measuring wavelength of which is set at 340 nm. 0.05 ml of enzymatic suspension at 37° C. is introduced into the cuvette concomitantly with the recording (corresponding to a reduction in the optical density at 340 nm). The maximum reaction rate is recorded.
The test values (containing compound (I)) are compared with the control value (without compound (I)); the results indicated represent the concentration at which compound (I) inhibits 50% of the enzymatic activity of PGFS, noted as IC50fs.

`COc1ccccc1/C=C(\C#N)c1nn(-c2ccccc2)c(N)c1C#N` [Compound 9]: the IC50 at 15-PGDH was 5 µM.

Regarding `N#C/C(=C\c1ccccc1Cl)c1nn(-c2ccccc2)c(N)c1C#N` [Compound 7], the IC50 was greater than 50 µM on PGF synthase and 3 µM at 15-PGDH.

In the case of `N#C/C(=C\c1c(Cl)cccc1Cl)c1nn(-c2ccccc2)c(N)c1C#N` [Compound 6], the values for the IC50 on PGF synthase and at 15-PGDH were greater than 50 µM and 0.8 µM, respectively.

`N#C/C(=C\c1ccccc1)c1nn(-c2ccccc2)c(N)c1C#N` [Compound 8]: the IC50 was greater than 75 µM on PGF synthase and 50 µM at 15-PGDH. Moreover, the “Selectivity (IC50fs/IC50dh ratio)” value on 15-PGDH (15-PGDH relative to PGF synthase) is listed as greater than 1.5.

As for `N#C/C(=C\c1c(Cl)cccc1Cl)c1nn(CCO)c(N)c1C#N` [Compound 1a], the IC50 on PGF synthase is greater than 50 µM; on 15-PGDH, 3 µM.
